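Assay format: 96-well plates, 48-hour exposure. Abbreviation: GI50, concentration required for 50% inhibition of growth.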 Calls of active or inactive are those of the source. Rule as the data show it: active = GI50 up to about 1.1 µM and inactive = higher.
Experiments:
Assay in all cases: NCI anticancer screen, dose series, 48 h
[1] = system: Malme-3M
[2] = system: EKVX
[3] = system: DMS-114
[4] = system: OVCAR-5
[5] = system: M14
[6] = system: NCI-H522
[7] = system: OVCAR-4
[8] = system: SK-MEL-5
[9] = system: SF-295
[10] = system: LOX IMVI
[11] = system: NCI-H460
[12] = system: SK-MEL-28
[13] = system: LXFL 529
[14] = system: HOP-92
[15] = system: RXF 631
[16] = system: UACC-62
[17] = system: HOP-18
[18] = system: KM12
[19] = system: SK-OV-3
[20] = system: RXF 393
[21] = system: HCC 2998
[22] = system: SF-268
[23] = system: SF-539
[24] = system: HOP-62
[25] = system: OVCAR-8
[26] = system: NCI-H226
[27] = system: HCT-116
[28] = system: NCI-H23
[29] = system: OVCAR-3
[30] = system: U-251
[31] = system: HCT-15
[32] = system: COLO 205
[33] = system: ACHN
[34] = system: HL-60
[35] = system: UACC-257
[36] = system: CCRF-CEM
[37] = system: SNB-19
[38] = system: DMS-273
[39] = system: A498
[40] = system: SNB-78
[41] = system: SK-MEL-2
[42] = system: HT-29
[43] = system: DLD-1
[44] = system: SN12C
[45] = system: A549
[46] = system: M19-MEL
[47] = system: XF498
[48] = system: UO-31
[49] = system: 786-0
[50] = system: TK-10
[51] = system: SW-620
[52] = system: IGROV-1
[53] = system: KM-20L2
[54] = system: RPMI-8226
[55] = system: SR
[56] = system: CAKI-1
[57] = system: MOLT-4
[58] = system: K562
[59] = system: SNB-75

CCCCCCCCCCCCC(Br)C(C)=O (stereo not drawn)
GI50 [1]: > 100 µM (inactive) | GI50 [2]: > 100 µM (inactive) | GI50 [3]: > 100 µM (inactive) | GI50 [4]: > 100 µM (inactive) | GI50 [5]: > 100 µM (inactive) | GI50 [6]: > 100 µM (inactive) | GI50 [7]: > 100 µM (inactive) | GI50 [8]: > 100 µM (inactive) | GI50 [9]: > 100 µM (inactive) | GI50 [10]: > 100 µM (inactive) | GI50 [11]: > 100 µM (inactive) | GI50 [12]: > 100 µM (inactive) | GI50 [13]: > 100 µM (inactive) | GI50 [14]: > 100 µM (inactive) | GI50 [15]: > 100 µM (inactive) | GI50 [16]: > 100 µM (inactive) | GI50 [17]: > 100 µM (inactive) | GI50 [18]: > 100 µM (inactive) | GI50 [19]: > 100 µM (inactive) | GI50 [20]: > 100 µM (inactive) | GI50 [21]: > 100 µM (inactive) | GI50 [22]: > 100 µM (inactive) | GI50 [23]: > 100 µM (inactive) | GI50 [24]: > 100 µM (inactive) | GI50 [25]: > 100 µM (inactive) | GI50 [26]: > 100 µM (inactive) | GI50 [27]: > 100 µM (inactive) | GI50 [28]: > 100 µM (inactive) | GI50 [29]: > 100 µM (inactive) | GI50 [30]: > 100 µM (inactive) | GI50 [31]: > 100 µM | GI50 [32]: > 100 µM (inactive) | GI50 [33]: > 100 µM (inactive) | GI50 [34]: > 100 µM (inactive) | GI50 [35]: > 100 µM (inactive) | GI50 [36]: > 100 µM (inactive) | GI50 [37]: > 100 µM (inactive) | GI50 [38]: > 100 µM (inactive) | GI50 [39]: > 100 µM (inactive) | GI50 [40]: > 100 µM (inactive) | GI50 [41]: > 100 µM (inactive) | GI50 [42]: > 100 µM (inactive) | GI50 [43]: > 100 µM (inactive) | GI50 [44]: > 100 µM (inactive) | GI50 [45]: > 100 µM (inactive) | GI50 [46]: > 100 µM (inactive) | GI50 [47]: > 100 µM (inactive) | GI50 [48]: > 100 µM (inactive) | GI50 [49]: > 100 µM (inactive) | GI50 [50]: > 100 µM (inactive) | GI50 [51]: > 100 µM (inactive) | GI50 [52]: > 100 µM (inactive) | GI50 [53]: > 100 µM (inactive)

O=C1C2C3C=C4c5ccccc5N(c5ccccc5)C4(C2C(=O)N1c1ccc(Cl)cc1)[C@H]1C(=O)N(c2ccc(Cl)cc2)C(=O)[C@@H]31 (stereo partly drawn)
GI50 [1]: > 100 µM (inactive) | GI50 [2]: > 100 µM (inactive) | GI50 [3]: > 100 µM (inactive) | GI50 [4]: > 100 µM (inactive) | GI50 [5]: 35.7 µM (inactive) | GI50 [6]: 82.6 µM (inactive) | GI50 [7]: > 100 µM (inactive) | GI50 [8]: > 100 µM (inactive) | GI50 [9]: > 100 µM (inactive) | GI50 [10]: > 100 µM (inactive) | GI50 [11]: > 100 µM (inactive) | GI50 [13]: > 100 µM (inactive) | GI50 [14]: > 100 µM (inactive) | GI50 [15]: 6.49 µM (inactive) | GI50 [16]: > 100 µM (inactive) | GI50 [17]: > 100 µM (inactive) | GI50 [54]: 22.2 µM (inactive) | GI50 [55]: > 100 µM (inactive) | GI50 [18]: > 100 µM (inactive) | GI50 [19]: > 100 µM (inactive) | GI50 [20]: > 100 µM (inactive) | GI50 [23]: > 100 µM (inactive) | GI50 [24]: > 100 µM (inactive) | GI50 [25]: > 100 µM (inactive) | GI50 [26]: > 100 µM (inactive) | GI50 [27]: 78.3 µM (inactive) | GI50 [28]: > 100 µM (inactive) | GI50 [29]: > 100 µM (inactive) | GI50 [30]: > 100 µM (inactive) | GI50 [56]: 14.7 µM (inactive) | GI50 [31]: > 100 µM | GI50 [32]: 64.7 µM (inactive) | GI50 [34]: > 100 µM (inactive) | GI50 [35]: > 100 µM (inactive) | GI50 [36]: > 100 µM (inactive) | GI50 [37]: > 100 µM (inactive) | GI50 [57]: > 100 µM (inactive) | GI50 [38]: > 100 µM (inactive) | GI50 [39]: > 100 µM (inactive) | GI50 [40]: > 100 µM (inactive) | GI50 [41]: > 100 µM (inactive) | GI50 [58]: > 100 µM (inactive) | GI50 [42]: > 100 µM (inactive) | GI50 [43]: > 100 µM (inactive) | GI50 [44]: > 100 µM (inactive) | GI50 [45]: > 100 µM (inactive) | GI50 [46]: > 100 µM (inactive) | GI50 [47]: > 100 µM (inactive) | GI50 [48]: > 100 µM (inactive) | GI50 [49]: > 100 µM (inactive) | GI50 [50]: > 100 µM (inactive) | GI50 [51]: > 100 µM (inactive) | GI50 [52]: > 100 µM (inactive) | GI50 [59]: > 100 µM (inactive) | GI50 [53]: > 100 µM (inactive)

From ChEMBL document CHEMBL1201862, “PubChem BioAssay data set” (2004)
